Reference: patent publication US20250108023A1, “Products for Masking Bitterness” (The Third People's Hospital of Henan Province, priority 2023, published 2025)

Legend:
TRPM5 = molecular target: T1, TRPM5 (Mus musculus, UniProt Q9JJH7); conditions: TPPO 5 μM; cited from earlier work
T1 construct: host or cells: mouse taste cells
T1 sequence (Q9JJH7 1-1158): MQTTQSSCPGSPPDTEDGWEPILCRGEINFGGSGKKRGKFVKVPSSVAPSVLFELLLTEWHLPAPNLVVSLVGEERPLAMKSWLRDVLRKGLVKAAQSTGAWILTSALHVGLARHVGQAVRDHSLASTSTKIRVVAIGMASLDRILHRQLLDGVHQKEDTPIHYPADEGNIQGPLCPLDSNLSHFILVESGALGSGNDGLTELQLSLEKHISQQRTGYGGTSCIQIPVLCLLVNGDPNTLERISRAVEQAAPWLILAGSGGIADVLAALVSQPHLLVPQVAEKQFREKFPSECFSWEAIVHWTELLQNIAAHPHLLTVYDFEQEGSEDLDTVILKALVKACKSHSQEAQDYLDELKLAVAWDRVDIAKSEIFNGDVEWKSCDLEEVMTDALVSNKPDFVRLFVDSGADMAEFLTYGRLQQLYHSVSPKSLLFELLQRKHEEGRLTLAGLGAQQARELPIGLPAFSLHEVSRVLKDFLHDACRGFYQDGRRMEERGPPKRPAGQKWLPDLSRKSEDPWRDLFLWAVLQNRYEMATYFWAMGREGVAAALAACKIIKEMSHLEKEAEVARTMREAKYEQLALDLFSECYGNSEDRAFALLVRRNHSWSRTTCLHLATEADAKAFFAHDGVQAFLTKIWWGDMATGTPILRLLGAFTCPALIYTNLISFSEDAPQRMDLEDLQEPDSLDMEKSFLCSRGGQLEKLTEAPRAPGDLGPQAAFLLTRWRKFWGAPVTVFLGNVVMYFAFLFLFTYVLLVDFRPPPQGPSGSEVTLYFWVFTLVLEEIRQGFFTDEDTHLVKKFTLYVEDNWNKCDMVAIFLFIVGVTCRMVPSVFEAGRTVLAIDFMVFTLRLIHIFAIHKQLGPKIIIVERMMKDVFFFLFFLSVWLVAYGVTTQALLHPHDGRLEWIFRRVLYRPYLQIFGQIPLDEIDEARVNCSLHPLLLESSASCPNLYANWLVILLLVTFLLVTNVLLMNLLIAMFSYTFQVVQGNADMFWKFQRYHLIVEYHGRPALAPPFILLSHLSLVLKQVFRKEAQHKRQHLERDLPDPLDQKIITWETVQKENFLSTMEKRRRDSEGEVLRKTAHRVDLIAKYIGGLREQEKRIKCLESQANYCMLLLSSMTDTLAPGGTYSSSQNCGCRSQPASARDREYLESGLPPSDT

[1] = molecular target: T2, sodium ion channel of Trpm5 bitter receptor (Mus musculus, UniProt Q9JJH7); assay: Immunofluorescence experiment of sodium ion channels in mouse tongue cells stimulated with bitter agent; format: cell-based, mice
T2 construct: Put the removed tongue in a 2 ml EP tube, add 1-1.5 ml of 0.25% trypsin solution; from tissue; host or cells: cells dissociated with trypsin from mouse tongue
T2 sequence (Q9JJH7 1-1158): T1 sequence (Q9JJH7 1-1158)
Procedure: The mouse was killed by dislocation, and the tongue was removed (minimizing tongue bleeding), disinfected with alcohol for 2 minutes (adding sodium citrate for anticoagulation), and washed with D-Hanks solution or rinsed with 10 ml of saline solution drawn by a syringe.
Take out the centrifuge tube from the constant temperature incubator, shake for 2 minutes, blow the undigested tongue several times with the gun tip, take out the tongue, cover it with the EP tube cap, put it in a centrifuge, centrifuge at 3000 rpm for 3 minutes, discard the supernatant, add cell culture medium (containing 10% inactivated serum), blow and disperse the cells, and place it in a 37° C. constant temperature incubator for 30 min to allow the cells to recover.
(1) Take out the prepared ENG-2 AM storage solution and warm it to room temperature for use, keeping it away from light. The concentration of the pre-prepared stock solution is 2 mM and it is stored at −18° C. for future use.
(2) Dilute the ENG-2 AM+DMSO stock solution to a […] working solution using serum-free culture medium.
(3) Load the probe in a serum-free culture medium containing an appropriate concentration of AM probe.
Take out the cells from the incubator, centrifuge, and discard the culture medium. Wash the cells once with D-Hanks solution, centrifuge, and discard the culture medium. Add 1 ml of culture medium again, then add 300 ul of sodium ion probe dilution solution, blow and disperse the cells, and incubate the cells at room temperature or 37° C. for 1 hour.
At the end of incubation, centrifuge at 100 rpm for 2 minutes, discard the supernatant, add 500 ul of cell culture medium without AM probe, blow and disperse the cells, and incubate for 20-60 min to ensure that the cells completely deesterify the AM group.
(4) Take 10 ul of incubation solution and drop it into the center of the cell counting plate, cover it with a slide, and observe it under a fluorescence microscope.
(5) Use a low-power microscope to find the cells, open the fluorescence path, detect the fluorescence signal with a fluorescence microscope, change to a high-power microscope, find the appropriate observation cells, observe and take pictures to record the initial signal.
(2) Experimental drugs: Add 5 ul of the tested drug to one side of the cover glass on the cell counting plate, use absorbent paper to absorb water on the opposite side, let the solution soak the cells, and then use a fluorescence microscope to observe and take 3-5 photos, one every 1-2 minutes; then add 5 ul of the standard bitter drug to one side of the cover glass on the cell counting plate, use absorbent paper to absorb water on the opposite side, let the solution soak the cells, and then use a fluorescence microscope to observe and take 3-5 photos, one every 1-2 minutes.
(5) Data analysis: Use Image J-Fiji software to analyze the images, compare the average values of the fluorescence pixels, remove the base number and compare them in the table, draw FIGS. 4-6, and use SPSS18.0 to perform chi-square tests to compare the differences between the data groups.

[2] = Bitterant 60 s (2% metronidazole solution)
[3] = Bitterant 120 s (2% metronidazole solution)
[4] = Bitterant 180 s (2% metronidazole solution)

average value of fluorescence brightness ([1]; Addition of drugs): 88.789 | average value of fluorescence brightness, base number removed ([1]; Addition of drugs): −0.243 | average value of fluorescence brightness [1, 2]: 88.608 | average value of fluorescence brightness, base number removed [1, 2]: −0.308 | average value of fluorescence brightness [1, 3]: 88.598 | average value of fluorescence brightness, base number removed [1, 3]: −1.322 | average value of fluorescence brightness [1, 4]: 88.583 | average value of fluorescence brightness, base number removed [1, 4]: −1.384 | average value of fluorescence brightness, base number removed ([1]; Initial): 0 | average value of fluorescence brightness ([1]; Initial (before addition of drug), sodium ion dye ENG-2 AM): 88.898 | blocking effect on the sodium ion channel (result analysis in words) ([1]; judged from change of sodium ion fluorescence after bitter drug): sodium ion channel is blocked
Compound: O=P(c1ccccc1)(c1ccccc1)c1ccccc1 [Triphenylphosphine oxide, reference compound]
remaining taste-evoked Na^+ responses (TRPM5): abolished
